Laboratory results from publication PMC13168289, “Potent acridone antimalarial against all three life stages of Plasmodium” (Nature Communications, 2026).
Values joined by “and” are separate entries in the source; they are usually repeats but may differ in a detail not shown here. Equal values may be shown once. Read-outs that look alike come from different tables or passages of the source.

Legend:
[1] = tested on: P. falciparum mutant T111 lines; test: drug susceptibility of T111-selected cyt b mutant lines; type: cell-based, Plasmodium falciparum; details: Plasmodium falciparum, DD2, Supplementary Table 4
Protocol: DNA extractions were performed on clonal parasites using the QIAamp DNA extraction kit (QIAGEN Inc, Valencia, CA) or ZYMO Quick gDNA Miniprep kit (Zymo Research Corp, Irvine, CA). For sequencing of the open reading frame of pfcytb, PCR was performed with genomic DNA using forward and reverse flanking primers for cyt b primer 1: 5’-[…]-3’ and primer 2: 5’-[…]-3’. PCR products were subjected to enzymatic cleanup with ExoSAP-IT (Thermo Fisher Scientific) and sent for Sanger sequencing (Eurofins Genomics, Louisville, KY) with PCR primer 2 paired with an internal forward primer: 5’-[…]-3’ and an internal reverse primer: 5’-[…]-3’. Sequences were assembled using 4Peaks software (Nucleobytes, Amsterdam, Netherlands) and aligned with Clustal Omega (EMBL-EBI). For sequencing of the open reading frame of pfdhodh, PCR was performed with genomic DNA using forward primer: 5’-[…]-3’ and reverse primer: 5’-[…]-3’. PCR products were prepared for Sanger sequencing and analyzed as described above, except using two forward primers: 5’-[…]-3’ and 5’-[…]-3’ and with two reverse primers: 5’-[…]-3’ and 5’-[…]-3’.
(§1) Drug susceptibility assays against P. falciparum strains were performed using a SYBR Green based assay. D6 and Dd2 were obtained from MR4. Tm90-C2B was obtained from WRAIR. Dd2-D1^I22L and ELQ-300 were obtained from VAPORHCS. D10yDHODH was obtained as a courtesy from Dr. Akhil Vaidya at Drexel University. P. yoelii ATV^r and ELQ-300^r clones were obtained from VAPORHCS.

[2] = design: method as in reviewer #3 remark; details: in humans; ref reviewer #3 remark; cited from earlier work
[3] = tested on: P. falciparum D6, Dd2, Tm90-C2B, Dd2-D1^I22L, D10yDHODH; test: microbe, parasite or virus in culture; type: cell-based, Plasmodium falciparum; details: Plasmodium falciparum
Protocol: as §1

[4] = cited from earlier work
[5] = cytotoxicity against HepG2 cells; type: cell-based; details: human; HepG2; read-out: inhibition IC50 vs HepG2
Protocol: Cytotoxicity was evaluated in human HepG2 liver cells, using an MTT assay. Briefly, HepG2 cells were cultured in complete Dulbecco’s modified Eagle’s medium (DMEM; Gibco-Invitrogen, No. 11995-065) prepared by supplementing DMEM with 10% heat inactivated FBS (Gibco-Invitrogen, No. 16000-036), 100 units/mL penicillin, and 100 µg/mL streptomycin. Cell viability was assessed using trypan blue. Ninety-six-well plates were seeded with 2 × 10^4 cells per well and incubated at 37 °C overnight in a humidified 5% CO2 atmosphere. Test compound plates were prepared with an INTEGRA assist plus station and 96-well plates containing 11 duplicate 2-fold serial dilutions of test compound suspended in DMSO. The diluted test compound was then added to the corresponding well preseeded with HepG2 cells. […] After incubation, 20 µL of a 0.1 mg/mL solution of resazurin diluted in PBS was added to each well, and all plates were subsequently incubated for 3–4 h in an incubator. Absorbance was determined with the Molecular Devices SpectraMax plate reader. Three independent experiments, each in duplicate, were performed, and the IC50 values were determined using GraphPad Prism software (Version 10) using the non-linear regression equation (sigmoidal dose-response, variable slope).

[6] = tested on: blood-stage P. yoelii; test: single-dose cure murine model, oral; type: in vivo, P. yoelii in CF1 mice
Text: (§2) Animals were housed at the VAPORHCS in Thoren Maxi-Miser microisolator cages (78 sq. in. floor space) with a maximum density of five females or four males per cage. Cages were maintained on a 12-h light/dark cycle and provided with autoclaved nesting materials (nestlets) for environmental enrichment. All mice had ad libitum access to food and water. Four- to five-week-old female and male outbred CF1 mice (Charles River Laboratories, Raleigh, NC, USA) were randomly assigned to treatment and control groups using a simple randomization procedure (e.g., computer-generated random numbers) to ensure balanced distribution of baseline body weights and starting parasitemia levels across all cohorts. Groups of four mice (n = 4, mean body weight of each group was ~30 g) were infected intravenously with 3.5 × 10^4 P. yoelii (Kenya strain, MRA-428) from a donor animal. Drug administration commenced the day after the animals were inoculated (Day 1). The test drug or the drug combination was dissolved in PEG-400 and administered by oral gavage once daily for 4 successive days in the 4-day suppression model, but only once on Day 1 in the single-dose cure model. Blood was collected via the tail vein with the aid of a syringe needle on Day 5 and then at weekly intervals through Day 28. Blood films were Giemsa-stained and examined microscopically to determine the level of parasitemia. All mice were observed daily to assess clinical signs. Animals with observable parasitemia following the experiments were euthanized; animals cleared of parasitemia from their bloodstream were observed daily with assessment of parasitemia performed weekly until Day 28, at which point, the animal(s) were scored as cured of the infection and then humanely euthanized. All treated mice with a negative smear on Day 28 were considered cured (100% protection). […]

[7] = host hepatocyte viability in the P. cynomolgi assay; type: cell-based, rhesus; details: rhesus monkey; radical cure mode; read-out: cytotoxicity CC50
Protocol: (§3) The liver-stage P. cynomolgi assay was designed to identify anti-hypnozoite drugs utilizing a 384-well in vitro culture system[31],[37]. Briefly, cryopreserved primary simian hepatocytes (donor lots XGB, OQB, and QHO: BioIVT, Inc.) were seeded in collagen-coated 384-well plates and infected with P. cynomolgi bastianellii (B strain) sporozoites dissected from infected Anopheles dirus mosquitoes. Test compounds were solubilized in 100% DMSO and serially diluted 2-fold to generate up to a 12-point dose-response curve, maintaining a final DMSO concentration of 0.1% across all wells. Two distinct treatment modes were evaluated. For the prophylactic assay, to assess the prevention of infection, compound exposure began 1-hour post-infection with daily media changes on Days 1 and 2. For the radical cure assay, to assess activity against established liver forms, drugs were administered daily from Day 4 through Day 7 post-infection. […] For readout on Day 8, plates were fixed and stained via immunofluorescence to visualize parasite forms (hypnozoites and schizonts) and hepatocyte nuclei, and images were acquired using an Operetta CLS high-content imaging system (PerkinElmer). Host hepatocyte viability was measured in parallel to determine compound toxicity. Parasite forms were automatically quantified using Harmony 4.9 software, and percent inhibition and toxicity were calculated relative to in-plate DMSO vehicle controls. IC50 and CC50 (half-maximal cytotoxic concentrations) were determined by fitting dose-response data to a four-parameter logistic (variable slope) model using a custom Python script incorporating a grid search algorithm.

[8] = tested on: luciferase-expressing P. berghei sporozoites; test: liver-stage prophylaxis murine model with IVIS bioluminescence imaging; type: in vivo, P. berghei in Albino C57BL/6 mice; details: Days -1, 0, 1
Text: Four- to six-week-old female inbred Albino C57BL/6 mice (18–22 g, Jackson Laboratories, Bar Harbor, ME, USA) were utilized. Animals were assigned unique study numbers via ear tags and cage cards and were randomly assigned to treatment or control groups (n = 5 per group) using a weigh-stratified randomization procedure. All animals were quarantined and acclimatized for 7 days prior to study initiation and were housed in a 12:12 light/dark cycle with food and water provided ad libitum. Mice were infected intravenously with 10^4 luciferase-expressing P. berghei sporozoites (ANKA strain) via tail vein injection on Day 0. Drugs were dissolved in PEG-400 and administered orally once per day on Day -1, Day 0, and Day 1. […] Infection reduction was assessed by comparing the bioluminescence signals emitted by treated groups with signals emitted by the vehicle control-treated group at that time point. Later blood-stage parasitemia was determined via flow cytometry. […] Long-term blood-stage efficacy was evaluated starting on Day 6 post-infection and continued for up to 31 days using flow cytometry.
In vivo antimalarial efficacy studies were performed as described above.

[9] = tested on: blood-stage P. yoelii; test: 4-day suppression murine model, oral; type: in vivo, P. yoelii in CF1 mice
Text: as §2

[10] = tested on: P. cynomolgi hypnozoites and schizonts; test: in vitro liver-stage P. cynomolgi assay in primary rhesus hepatocytes; type: cell-based, Plasmodium cynomolgi; details: read-out: inhibition IC50
Protocol: as §3

[11] = tested on: P. falciparum NF54 oocysts in mosquitoes; test: tarsal contact assay; type: in vivo, P. falciparum in Anopheles gambiae G3; details: 5% by weight film, 6 min contact
Protocol: The tarsal assay using a thin film was performed. For preparation of a thin film, 25 mL xylenes and 1.0 g low density polyethylene polymer were combined on the lid of a glass petri dish (6 cm) and heated at 150 °C until the polymer was dissolved. Xylenes were occasionally replenished upon evaporation. A solution of xylenes containing […] prodrug was then added to the above solution. […] The crude polymer thin film was then put underneath the glass petri dish, and the assembled apparatus was heated on a hot plate with a weight placed on top. The resulting extruded polymer thin film containing the 5% (w/w) […] prodrug in low-density polyethylene (LDPE) was allowed to cool and removed from the petri dish lid. […] After exposure, the mosquitoes were immediately transferred to a cage and one hour later provided with cultured P. falciparum NF54 gametocyte-infected erythrocytes using a membrane feeder. […] On Day 7 post-infection, mosquitoes were aspirated into 80% ethanol and incubated at -20 °C for 10 min before being transferred to 1X PBS for dissection. […] Midguts were imaged and oocysts counted at 100× magnification on an Olympus Inverted CKX41 microscope to quantify oocyst prevalence and intensity.

[12] = pilot safety study in rhesus monkeys; type: in vivo; details: response to reviewers
[13] = tested on: rhesus hepatocytes; test: host hepatocyte viability in the P. cynomolgi assay; type: cell-based; details: radical cure mode; read-out: cytotoxicity CC50
Protocol: as §3

[14] = Plasmodium cynomolgi, Hepatocyte, in Macaca mulatta, prophylactic mode, hypnozoite
[15] = Plasmodium cynomolgi, Hepatocyte, in Macaca mulatta, prophylactic mode, schizont
[16] = Plasmodium cynomolgi, Hepatocyte, in Macaca mulatta, radical cure mode, hypnozoite
[17] = Plasmodium cynomolgi, Hepatocyte, in Macaca mulatta, radical cure mode, schizont

CCN(CC)CCCC(C)Nc1ccnc2cc(Cl)ccc12 (stereo not drawn) [CQ, chloroquine]
IC50 ([1]; Dd2): 181 ± 15 nM | IC50 ([1]; Dd2-A131S-140I-259L-264L): 205 ± 21 nM | IC50 ([1]; Dd2-B131S-140I-259L-264L): 168 ± 31 nM | IC50 ([1]; Dd2-D0119L-131S-259L (pfdhodh mutation)): 210 ± 34 nM | IC50 ([1]; Dd2-D1131S-140I-259L (pfdhodh mutation)): 162 ± 18 nM | T1/2 [2]: 480 to 960 h | IC50 ([3]; read-out: in vitro IC50 vs P. falciparum, D6): 14 ± 0.7 nM | IC50 ([3]; read-out: in vitro IC50 vs P. falciparum, D10yDHODH): 79 ± 16 nM | IC50 ([3]; read-out: in vitro IC50 vs P. falciparum, Dd2-D1^I22L (ELQ-300-resistant)): 209 ± 26 nM | IC50 ([3]; read-out: in vitro IC50 vs P. falciparum, Tm90-C2B (cyt b Y268S, ATV-resistant)): 211 ± 7.6 nM | T1/2 ([4]; healthy mice, ref PMID: 21646487): about 46 h | IC50 at 24 h [5]: 68600 nM

COc1cc(C)c2c(Oc3cccc(C(F)(F)F)c3)c(OC)cc(NC(C)CCCN)c2n1 (stereo not drawn) [TQ, tafenoquine]
% survival through Day 28 ([6]; TQ 15 + T111 0 mg/kg): 0% | number of mice cured on Day 28 ([6]; TQ 15 + T111 0 mg/kg): 0/4 | parasitemia burden on Day 5 ([6]; TQ 15 + T111 0 mg/kg): 0 | % survival through Day 28 ([6]; TQ 20 + T111 0 mg/kg): 25% | number of mice cured on Day 28 ([6]; TQ 20 + T111 0 mg/kg): 1/4 | parasitemia burden on Day 5 ([6]; TQ 20 + T111 0 mg/kg): 0 | % survival through Day 28 ([6]; TQ 30 + T111 0 mg/kg): 75% | number of mice cured on Day 28 ([6]; TQ 30 + T111 0 mg/kg): 3/4 | parasitemia burden on Day 5 ([6]; TQ 30 + T111 0 mg/kg): 0 | % survival through Day 28 ([6]; TQ 40 + T111 0 mg/kg): 100% | number of mice cured on Day 28 ([6]; TQ 40 + T111 0 mg/kg): single-dose cure in all treated mice and 4/4 | parasitemia burden on Day 5 ([6]; TQ 40 + T111 0 mg/kg): 0 | CC50 at 4 days [7]: > 20000 nM | protection from liver-stage infection ([8]; 1 mg/kg/day oral): did not clear liver-stage infection | protection from liver-stage infection ([8]; 10 mg/kg/day oral): full protection | T1/2 [2]: 336 h | ED50 of TQ ([9]; TQ + 0.03 mg/kg/d T111): 0.59 mg/kg/day | ED50 of TQ ([9]; TQ + 0.06 mg/kg/d T111): 0.12 mg/kg/day | ED50 of TQ ([9]; TQ + 0.12 mg/kg/d T111): 0.05 mg/kg/day | ED50 of TQ ([9]; TQ alone, female CF1 mice): 1.70 mg/kg/day | T1/2 ([4]; mouse liver, ref internal data from WRAIR): 75 h | T1/2 ([4]; mouse plasma, ref internal data from WRAIR): 50 h | IC50 [10, 14]: 180 nM | IC50 [10, 15]: 170 nM | IC50 [10, 16]: 8100 nM | IC50 [10, 17]: 9800 nM

CO[C@@H]1[C@@H](OC)[C@H](C)[C@@](O)(CC(=O)O)O[C@H]1[C@H](C)[C@H]1O[C@@]2(CC[C@@](C)([C@H]3CC[C@@](C)([C@@H]4O[C@@H]([C@H]5O[C@](C)(O)[C@H](C)C[C@@H]5C)C[C@@H]4O[C@@H]4C[C@H](OC)[C@@H](OC)[C@H](C)O4)O3)O2)C[C@H](O)[C@H]1C [MAD, maduramicin]
CC50 at 4 days [7]: 360 nM | IC50 [10, 14]: < 0.98 nM | IC50 [10, 15]: < 0.98 nM | IC50 [10, 16]: 21 nM | IC50 [10, 17]: 41 nM

CCOC(=O)Oc1c2ccc(Oc3ccc(OC(F)(F)F)cc3)cc2nc2cc(Cl)cc(F)c12 [T111 prodrug]
reduction in oocyst intensity (inhibition) [11]: 97.6% | reduction in oocyst prevalence (inhibition) [11]: 92.5% | tolerability [12]: well-tolerated

CNC(=O)c1ccc(-c2cnc3cnc(C(=O)N(C)c4ccc(Cl)cc4)cn23)cc1 [KDU691]
CC50 [13]: > 20000 nM | IC50 ([10]; prophylactic mode, hypnozoite): 120 nM | IC50 ([10]; prophylactic mode, schizont): 98 nM | IC50 ([10]; radical cure mode, hypnozoite): > 20000 nM | IC50 ([10]; radical cure mode, schizont): 190 nM
